For orientation: pKi means the Ki on a negative log10 scale, so that one unit is a factor of ten.

pKi: −log10 of the molar value.

The results in this text go back to patent publication US20230135093A1, “TRIAZOLYL DERIVATIVES AS GABA A ALPHA5 PAM” (Hoffmann-La Roche Inc., priority 2020, published 2023).

Test [1] addresses T1, h-GABA-A α5β3γ2 (Homo sapiens, UniProt P18507+P31644).
T1 construct: expressed in transfected cells; host or cells: Xenopus laevis oocytes, micro-injected with subunit RNA
Description: [3H]flumazenil competition binding assay on membranes of HEK293 cells expressing GABAA receptors. The conditions noted are these: Table 1; displacement of [3H]-Flumazenil (0.5 nM), HEK293 cells expressing human receptors, means of two determinations. As for the experimental part: The affinity of compounds at GABAA receptor subtypes was measured by competition for [3H]flumazenil (85 Ci/mmol; Roche) binding to HEK293 cells expressing rat (stably transfected) or human (transiently transfected) receptors of composition α1β3γ2, α2β3γ2, α3β3γ2 and α5β3γ2.
Cell pellets were suspended in Krebs-tris buffer (4.8 mM KCl, 1.2 mM CaCl2, 1.2 mM MgCl2, 120 mM NaCl, 15 mM Tris; pH 7.5; binding assay buffer), homogenized by polytron for ca. 20 sec on ice and centrifuged for 60 min at 4° C. (50000 g; Sorvall, rotor: SM24=20000 rpm). The cell pellets were resuspended in Krebs-tris buffer and homogenized by polytron for ca. 15 sec on ice. Protein was measured (Bradford method, Bio-Rad) and aliquots of 1 mL were prepared and stored at −80° C.
Radioligand binding assays were carried out in a volume of […] (96-well plates) which contained […] of cell membranes, [^3H]-Flumazenil at a concentration of 1 nM for α1, α2, α3 subunits and 0.5 nM for α5 subunits and the test compound in the range of […]. Nonspecific binding was defined by 10^−5 M diazepam and typically represented less than 5% of the total binding. Assays were incubated to equilibrium for 1 hour at 4° C. and harvested onto GF/C uni-filters (Packard) by filtration using a Packard harvester and washing with ice-cold wash buffer (50 mM Tris; pH 7.5). After drying, filter-retained radioactivity was detected by liquid scintillation counting. Ki values were calculated using Excel-Fit (Microsoft) and are the means of two determinations.
In a preferred embodiment the compounds of the invention are binding selective for the α5 subunit relative to the α1, α2 and α3 subunit. Representative test results, obtained by the above described assay measuring binding affinity to HEK293 cells expressing human (h) receptors, are shown in the Table below.
For orientation: Displacement assays read how much labelled ligand stays bound in the presence of the test substance.

Test [2] addresses T1, h-GABA-A α5β3γ2. The test can be described thus: Two-electrode voltage clamp electrophysiology in Xenopus oocytes expressing GABAA receptors (modulation of GABA EC20 current). The class given is cell-based. Conditions: Table 1; for Efficacy (GABA) %: % modulation of GABA EC20 = 100*(Fold increase-1); for Fold increase h-GABA-A α5β3γ2 oocyte: Xenopus oocytes, GABA EC20, test compound at approximatively 30 fold its Ki. As for the experimental part: Xenopus laevis oocytes at maturation stages V-VI were used for the expression of cloned mRNA encoding GABAA receptor subunits. Oocytes ready for RNA micro-injection were bought from Ecocyte, Castrop-Rauxel, Germany and stored in modified Barth's medium (composition in mM: NaCl 88, KCl 1, NaHCO3 2.4, HEPES 10, MgSO4 0.82, CaNO3 0.33, CaCl2 0.33, pH=7.5) at 20° C. until the experiment.
Oocytes were plated in 96-well plates to be used in an automated instrument (Robo-ocyte, MultiChannelSystems, Reutlingen, Germany) for microinjection and electrophysiological recordings. Approximately 50 nl of an aqueous solution containing the RNA transcripts for the subunits of the desired GABAA receptor was injected into each oocyte. RNA concentrations ranged between 0.3 and 16 ng/μl/subunit and were adjusted in pilot experiments to obtain GABA responses of a suitable size and a maximal effect of the reference modulator, Beta-CCM (3-CCM), a betacarboline negative allosteric modulator (NAM) at the GABAA receptor benzodiazepine (BZD) binding site or Midazolam, a benzodiazepine positive allosteric modulator (PAM) at the GABAA receptor benzodiazepine (BZD) binding site. The concentration of the γ2 subunit encoding RNA usually was 5- to 10-fold higher than the RNAs encoding the other subunits. Oocytes were kept in modified Barth's medium (composition in mM: NaCl 88, KCl 1, NaHCO3 4, HEPES 10, MgSO4 0.82, CaNO3 0.33, CaCl2 0.33, pH=7.5) at 20° C. until the experiment.
Electrophysiological experiments were performed on days 3 to 5 after the micro-injection of mRNA. During the experiment the oocytes were constantly superfused by a solution containing (in mM) NaCl 90, KCl 1, HEPES 5, MgCl2 1, CaCl2 1 (pH 7.4). Oocytes were impaled by two glass microelectrodes (resistance: 0.4 MQ) which were filled with a solution containing KCl 1M+K-acetate 1.5 M and voltage-clamped to −80 mV. The recordings were performed at room temperature using the Roboocyte two-electrode voltage clamp system (Multichannelsystem). After an initial equilibration period of 1.5 min GABA was added for 1.5 min at a concentration evoking approximately 20% of a maximal current response (EC20). After another rest interval of 2.5 min GABA was again added evoking a response of similar amplitude and shape. 0.5 min after the onset of this second GABA application the test compound, at a concentration corresponding to approximatively 30 fold its Ki, was added while GABA was still present. Current traces were recorded at a digitization rate of 10 Hz during and shortly before and after the GABA application.
Each compound and concentration was tested on at least 3 oocytes. Different oocytes were used for different compound concentrations. β-CCM, a negative allosteric modulator, or Midazolam, a positive allosteric modulators, were tested on a few (3-6) oocytes on each 96-well plate for a positive control at a maximally effective. β-CCM inhibited the GABA-evoked current by approximatively 50% (Fold increase 0.5), while Midazolam potentiated the GABA-induced current by approximatively 150% (Fold increase 2.5).
For the analysis, the digitized current traces of the first and second GABA response were superimposed and, if necessary, rescaled to equal maximal amplitudes. The ratio between the two responses during the time interval of test compound application was calculated point by point. The extremum of the resulting “ratio trace” was taken as the efficacy (“Fold increase”) of the compound expressed as “% modulation of GABA EC20” (100*(Fold increase-1)).

On h-GABA-A α5β3γ2 [1], `CN(C)c1cnn(Cc2c(-c3ccc(Cl)cc3)nnn2C)c(=O)c1` [Example 31, 2-[[5-(4-chlorophenyl)-3-methyl-triazol-4-yl]methyl]-5-(dimethylamino)pyridazin-3-one] gave a pKi of 7.76. Moreover, at h-GABA-A α5β3γ2 [2], the “Efficacy (GABA) %” value is listed as 35% and the “Fold increase h-GABA-A α5β3γ2 oocyte” value was 1.35.

As to `CO[C@@H]1COC2(C1)CN(c1cnn(Cc3c(-c4ccc(Cl)cc4F)nnn3C)c(=O)c1)C2` [Example 32, (S)-2-((4-(4-chloro-2-fluorophenyl)-1-methyl-1H-1,2,3-triazol-5-yl)methyl)-5-(7-methoxy-5-oxa-2-azaspiro[3.4]octan-2-yl)pyridazin-3(2H)-one], on h-GABA-A α5β3γ2 [1], the negative logarithm of the Ki (pKi) is 7.33. In addition, on h-GABA-A α5β3γ2 [2], the “Efficacy (GABA) %” value was found to be 98% and the “Fold increase h-GABA-A α5β3γ2 oocyte” value came out at 1.98.

For `CO[C@H]1COC2(C1)CN(c1cnn(Cc3c(-c4ccc(Cl)cc4F)nnn3C)c(=O)c1)C2` [Example 33, (R)-2-((4-(4-chloro-2-fluorophenyl)-1-methyl-1H-1,2,3-triazol-5-yl)methyl)-5-(7-methoxy-5-oxa-2-azaspiro[3.4]octan-2-yl)pyridazin-3(2H)-one], the negative-log Ki (pKi) at h-GABA-A α5β3γ2 [1] is 7.78. On h-GABA-A α5β3γ2 [2], the “Efficacy (GABA) %” value came out at 61% and the “Fold increase h-GABA-A α5β3γ2 oocyte” value is recorded as 1.61.

Molecule `Cc1nnn(-c2ccc(Cl)cc2F)c1Cn1ncc(N2CC(OCC(F)(F)F)C2)cc1=O` [Example 34, 2-[[3-(4-chloro-2-fluoro-phenyl)-5-methyl-triazol-4-yl]methyl]-5-[3-(2,2,2-trifluoro-ethoxy)azetidin-1-yl]pyridazin-3-one] gave a pKi at h-GABA-A α5β3γ2 [1] of 7.35. In addition, at h-GABA-A α5β3γ2 [2], the “Efficacy (GABA) %” value was found to be 85% and the “Fold increase h-GABA-A α5β3γ2 oocyte” value is 1.85.

Take `Cc1nnn(-c2ccc(Cl)cc2F)c1Cn1ncc(N2CCO[C@@H](C)C2)cc1=O` [Example 35, 2-[[3-(4-chloro-2-fluoro-phenyl)-5-methyl-triazol-4-yl]methyl]-5-[(2S)-2-methylmorpholin-4-yl]pyridazin-3-one]: the negative logarithm of the Ki (pKi) at h-GABA-A α5β3γ2 [1] is 7.98. Moreover, at h-GABA-A α5β3γ2 [2], the “Efficacy (GABA) %” value amounted to 130% and the “Fold increase h-GABA-A α5β3γ2 oocyte” value was 2.3.

On h-GABA-A α5β3γ2 [1], `Cc1nnn(-c2ccc(Cl)cc2F)c1Cn1ncc(N2CCO[C@H](C)C2)cc1=O` [Example 36, 2-[[3-(4-chloro-2-fluoro-phenyl)-5-methyl-triazol-4-yl]methyl]-5-[(2R)-2-methylmorpholin-4-yl]pyridazin-3-one] had a negative logarithm of the Ki (pKi) of 7.91. Further, at h-GABA-A α5β3γ2 [2], the “Efficacy (GABA) %” value was 106% and the “Fold increase h-GABA-A α5β3γ2 oocyte” value came out at 2.06.

As for `Cc1nnn(-c2ccc(Cl)cc2F)c1Cn1ncc(N2CCC(n3ccnc3C)CC2)cc1=O` [Example 38, 2-[[3-(4-chloro-2-fluoro-phenyl)-5-methyl-triazol-4-yl]methyl]-5-[4-(2-methylimidazol-1-yl)-1-piperidyl]pyridazin-3-one], the negative-log Ki (pKi) on h-GABA-A α5β3γ2 [1] was 8.25. For the same molecule, at h-GABA-A α5β3γ2 [2], the “Efficacy (GABA) %” value is listed as 78% and the “Fold increase h-GABA-A α5β3γ2 oocyte” value is 1.78.

`COc1ncccc1N1CCN(c2cnn(Cc3c(C)nnn3-c3ccc(Cl)cc3F)c(=O)c2)CC1` [Example 39, 2-[[3-(4-chloro-2-fluoro-phenyl)-5-methyl-triazol-4-yl]methyl]-5-[4-(2-methoxy-3-pyridyl)piperazin-1-yl]pyridazin-3-one] had a pKi at h-GABA-A α5β3γ2 [1] of 7.94. For the same molecule, at h-GABA-A α5β3γ2 [2], the “Efficacy (GABA) %” value is 108% and the “Fold increase h-GABA-A α5β3γ2 oocyte” value was 2.08.

`CC(C)N1CCN(c2cnn(Cc3c(-c4ccc(Cl)cc4)nnn3C)c(=O)c2)C[C@@H]1C` [Example 40, 2-[[5-(4-chlorophenyl)-3-methyl-triazol-4-yl]methyl]-5-[(3S)-4-isopropyl-3-methyl-piperazin-1-yl]pyridazin-3-one] showed a pKi at h-GABA-A α5β3γ2 [1] of 7.69. For the same molecule, at h-GABA-A α5β3γ2 [2], the “Efficacy (GABA) %” value came out at 103% and the “Fold increase h-GABA-A α5β3γ2 oocyte” value is 2.03.
